Assay results published in ChEMBL document CHEMBL2069281, “2-Phenylamino-6-cyano-1H-benzimidazole-based isoform selective casein kinase 1 gamma (CK1γ) inhibitors” (Bioorg Med Chem Lett, 2012).

Assay: Clearance in rat at […], iv
Assay type: ADME, organism-based
Design: dose 0.58 mg/kg, route intravenous
Conditions: in vivo

- clearance: 108 mL/min/kg
Structure (SMILES): CC(C)(C)c1ccc(Nc2nc3ccc(C#N)cc3[nH]2)cc1
